The test system of assay [1] is human lung cancer A549 cells. Put plainly: MTT assay, proliferation of A549 cells. Particulars: 48 h, different concentrations, Figure 5. The class given is cell-based. On the procedure: A549 cells were seeded in a 96-well culture plate and allowed to grow overnight. Then, cells were exposed to different concentrations of compounds 1–4 and incubated at 37 °C for 48 h. After that, an MTT stock solution (0.5 mg/mL) was added into each well and the plate was incubated for 4 h. The 150 µL of DMSO was used for fixing the MTT-treated cells and the absorbance of each sample was recorded at 490 nm with a Microplate Spectrophotometer.
(In general: Tetrazolium dyes change colour on reduction, which living cells bring about.)

The next assay concerns the target T1, PARP-3 (Homo sapiens, UniProt Q9Y6F1).
T1 construct: purchased Trevigan (Gaithersburg, MD, USA)
T1 sequence (Q9Y6F1 1-533): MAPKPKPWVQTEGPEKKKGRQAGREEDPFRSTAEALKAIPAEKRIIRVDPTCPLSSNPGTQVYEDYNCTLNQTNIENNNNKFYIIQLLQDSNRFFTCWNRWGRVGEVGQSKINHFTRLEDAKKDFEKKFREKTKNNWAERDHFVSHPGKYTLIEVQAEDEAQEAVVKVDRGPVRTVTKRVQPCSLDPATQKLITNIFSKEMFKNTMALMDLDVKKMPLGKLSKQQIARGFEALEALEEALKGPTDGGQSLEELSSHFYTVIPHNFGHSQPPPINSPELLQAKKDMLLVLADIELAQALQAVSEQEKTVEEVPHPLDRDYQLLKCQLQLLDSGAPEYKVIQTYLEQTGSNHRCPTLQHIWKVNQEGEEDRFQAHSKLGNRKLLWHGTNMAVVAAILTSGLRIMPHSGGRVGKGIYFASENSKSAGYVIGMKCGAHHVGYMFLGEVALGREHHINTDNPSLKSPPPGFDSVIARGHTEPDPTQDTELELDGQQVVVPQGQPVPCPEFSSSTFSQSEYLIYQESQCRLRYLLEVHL
Briefly: In vitro PARP inhibition assay (PARP-3). The class given is biochemical. Particulars: Table 4. On the procedure: (§1) Purified recombinant human PARPs from Trevigan (Gaithersburg, MD, USA) was used to determine the IC50 values of a PARP inhibitor. The PARP enzyme assay was set up on ice in a volume of 100 μL consisting of 50 mM Tris–HCl (pH 8.0), 2 mM MgCl2, 30 μg/mL of DNase activated herring sperm DNA (Sigma, MO, USA), 30 μM [^3H]nicotinamide adenine dinucleotide (67 mCi/mmol), 75 μg/mL PARP enzyme and various concentrations of the compounds to be tested. The reaction was initiated by incubating the mixture at 25 °C. After 15 min of incubation, the reaction was terminated by adding 500 μL of ice cold 20% (w/v) trichloroacetic acid. The formed precipitate was transferred onto a glass fiber filter (Packard Unifilter–GF/B) and washed three times with ethanol. After the filter is dried, the radioactivity is determined by scintillation counting.

A further assay concerns the target T2, PARP-2 (Homo sapiens, UniProt Q9UGN5).
T2 construct: purchased Trevigan (Gaithersburg, MD, USA)
Briefly: In vitro PARP inhibition assay (PARP-2). In kind it is biochemical. The method, then: as §1

In a further assay the target is T3, PARP-1 (Homo sapiens, UniProt P09874).
T3 construct: purchased Trevigan (Gaithersburg, MD, USA)
Put plainly: In vitro PARP inhibition assay (PARP-1). Particulars: Table 3; PARP-1 enzyme assay, mean ± SD, three independent experiments. In kind it is biochemical. The method, then:
as §1

Each structure is given as a SMILES string. Where two headings read alike, the source gives them in different places.

T3 sequence (P09874 whole entry): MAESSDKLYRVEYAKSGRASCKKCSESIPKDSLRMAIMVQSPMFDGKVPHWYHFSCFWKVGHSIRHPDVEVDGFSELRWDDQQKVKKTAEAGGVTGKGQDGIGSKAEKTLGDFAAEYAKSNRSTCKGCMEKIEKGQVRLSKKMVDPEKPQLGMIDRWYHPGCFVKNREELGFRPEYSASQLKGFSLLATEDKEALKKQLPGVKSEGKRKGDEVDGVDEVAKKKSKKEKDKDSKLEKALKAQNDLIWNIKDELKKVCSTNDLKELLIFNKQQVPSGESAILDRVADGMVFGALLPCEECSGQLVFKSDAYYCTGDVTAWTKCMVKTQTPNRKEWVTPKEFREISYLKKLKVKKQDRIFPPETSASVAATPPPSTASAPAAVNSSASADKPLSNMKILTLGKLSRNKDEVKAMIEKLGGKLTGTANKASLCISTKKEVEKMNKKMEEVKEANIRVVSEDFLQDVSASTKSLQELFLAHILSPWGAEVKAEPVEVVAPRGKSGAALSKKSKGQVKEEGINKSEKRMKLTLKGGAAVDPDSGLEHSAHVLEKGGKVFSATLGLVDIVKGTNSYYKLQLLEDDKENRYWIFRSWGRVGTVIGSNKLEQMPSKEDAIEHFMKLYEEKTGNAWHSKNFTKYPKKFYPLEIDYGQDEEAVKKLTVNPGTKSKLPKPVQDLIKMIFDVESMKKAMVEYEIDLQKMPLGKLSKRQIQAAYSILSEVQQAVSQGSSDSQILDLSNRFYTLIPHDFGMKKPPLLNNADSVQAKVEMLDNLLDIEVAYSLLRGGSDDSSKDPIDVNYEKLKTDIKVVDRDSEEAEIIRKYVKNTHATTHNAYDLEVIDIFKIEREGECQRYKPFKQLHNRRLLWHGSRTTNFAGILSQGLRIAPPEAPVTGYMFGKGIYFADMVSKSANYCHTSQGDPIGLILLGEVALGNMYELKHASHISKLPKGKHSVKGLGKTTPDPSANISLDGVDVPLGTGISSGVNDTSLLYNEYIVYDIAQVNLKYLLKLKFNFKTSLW
T2 sequence (Q9UGN5 whole entry): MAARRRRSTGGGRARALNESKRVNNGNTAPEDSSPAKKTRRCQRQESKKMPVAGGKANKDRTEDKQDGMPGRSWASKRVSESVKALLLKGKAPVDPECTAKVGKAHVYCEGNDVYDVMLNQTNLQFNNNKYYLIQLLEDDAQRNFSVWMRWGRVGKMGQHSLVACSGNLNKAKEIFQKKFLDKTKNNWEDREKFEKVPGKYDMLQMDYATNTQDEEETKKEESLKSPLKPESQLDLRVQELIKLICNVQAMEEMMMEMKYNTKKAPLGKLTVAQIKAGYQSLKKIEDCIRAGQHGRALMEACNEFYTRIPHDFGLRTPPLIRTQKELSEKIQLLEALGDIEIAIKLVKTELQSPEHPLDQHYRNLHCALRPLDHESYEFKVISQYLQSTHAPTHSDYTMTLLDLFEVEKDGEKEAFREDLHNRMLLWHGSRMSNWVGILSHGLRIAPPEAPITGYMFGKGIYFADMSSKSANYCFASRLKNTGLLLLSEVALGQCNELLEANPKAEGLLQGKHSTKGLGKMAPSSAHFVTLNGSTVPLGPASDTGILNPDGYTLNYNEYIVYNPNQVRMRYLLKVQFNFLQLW

For `NC(=O)c1cccc2c1C(=O)N(C1CCN(Cc3ccc(F)cc3)CC1)C2` [Compound 1], the “Inhibition of growth/proliferation of A549 cells” value in assay [1] is “stronger anti-proliferation effects than compounds 2 and 3”. Besides, the values for the IC50 against PARP-3 and on PARP-2 were greater than 100 µM and greater than 35 µM, respectively.

With `CN(C)CCNc1ccc2[nH]c(=O)c3ccccc3c2n1` [Compound 2], the IC50 on PARP-1 was determined as 0.19 ± 0.026 µM.

At PARP-1, `CC(=O)Nc1cccc(Cn2c(=O)[nH]c(=O)c3ccccc32)c1` [Compound 3] registered an IC50 of 0.16 ± 0.013 µM.

In the case of `CCc1ccc(-c2nc3cccc4c3n2CCNC4=O)cc1` [Compound 4], the “Inhibition of growth/proliferation of A549 cells” value in assay [1] is “stronger anti-proliferation effects than compounds 2 and 3”. Moreover, the IC50 at PARP-3 was greater than 100 µM; against PARP-1, 0.065 ± 0.008 µM; at PARP-2 (Table 4, read-out: PARP-2), greater than 35 µM. Besides, at PARP-2 (selectivity ratio of IC50 values), the PARP-2/PARP-1 is greater than 1000.

The compound `Cc1nc2c(O)cccc2c(=O)[nH]1` [NU1025, reference compound] yielded an IC50 against PARP-1 of 0.4 ± 0.035 µM.

The values above are taken from paper PMC6930522, “Structure-Based Pharmacophore Modeling, Virtual Screening, Molecular Docking and Biological Evaluation for Identification of Potential Poly (ADP-Ribose) Polymerase-1 (PARP-1) Inhibitors” (Molecules, 2019).
